Source: patent US10912767B2, “Anthracycline prodrugs and methods of making and using the same” (THE REGENTS OF THE UNIVERSITY OF COLORADO, priority 2015, dated 2021)
Read-outs that look alike come from different tables or passages of the source.

How the values were obtained:
[1] = In vivo body weight change as indication of toxicity; parameters: species or system nude mice; conditions: 4 mg/kg dox equivalent iv weekly x6; photodoxazolidine with 18-FDG ip
Procedure: (§1) For reconstitution for intravenous injection into mice, dry photodoxazolidine R═H (23 mg) was dissolved in 785 μL of DMSO for a final concentration of 34.5 mM, labeled “Drug Stock,” and stored dark at −20° C. Shortly before injection, the Drug Stock was thawed and 20-50 μL was transferred to a new tube. To this tube, 6 volumes (relative to the Drug Stock volume) of PEG-400 and 4 volumes of propylene glycol (PG) were added and the solution thoroughly mixed by vortexing. Immediately prior to injection, 9 volumes of saline (0.9% NaCl) was added to the DMSO/PEG/PG solution of photodoxazolidine and mixed by vortexing. […] Therefore, this formulation was used as prepared. This protocol produces a final formulation of 5% DMSO, 30% PEG-400, 20% PG, 45% saline. A standard injection of 100 μL of this formulation delivers 4 mg dox equivalent/kg body weight for a mouse weighing 0.025 kg.
(§2) Luciferase-positive MDA-MB-231 cells were maintained in MEM culture medium supplemented with 10% heat inactivated fetal bovine serum and 2% penicillin/streptomycin. Prior to injection, typsinized cell populations were counted with a Z1 Coulter Particle counter, centrifuged, and resuspended in Hank's Balanced Salt Solution (HBSS) at a concentration of 4.0×10^7 cells/mL. […] Body weight and tumor growth were measured regularly. Tumor growth was measured optically from the bioluminescence signal from injection of luciferin. […]

[2] = tested on: orthotopic MDA-MB-231 human breast tumor xenografts; assay: In vivo mouse efficacy, tumor bioluminescence; parameters: species or system nude mice; conditions: 4 mg/kg dox equivalent iv + 18-FDG ip, weekly x6
Procedure: as §1, §2

[3] = tested on: NCI/ADR-RES multi-drug resistant ovarian cancer cell line; assay: Tumor cell growth inhibition, crystal violet (Example 2); assay type: cell-based; conditions: for IC50: read-out: IC50
Source text: In order to investigate the photolysis of the drugs in a system amenable to cell culture use, a custom UV irradiation apparatus was constructed, consisting of 3 small blacklight fluorescent bulbs (Southern New England Ultraviolet Co., λmax=350 nm) set between two ring stands and suspended at a height of 11.5 cm. The bulbs' housing was reflective aluminum so as to direct as much UV irradiation as possible downward toward the plate. Upon installation in sterile cell culture hood, the power of the system was measured at approximately 6-7 mW using a Scientech laser power meter. Prior to experimentation, the hood and irradiation apparatus was sterilized with 254 nm germicidal UV irradiation overnight. Using this setup, 100 μM of 4,5-dimethoxy-2-nitrobenyl alcohol (DMNA), photodoxazolidine R═H, and glucose-PEG-photodoxazoldine were irradiated in individual wells of a 24-well plate. Initially, 50 μL of a DMSO stock was diluted with 950 μL of PBS and aliquots of 50 μL were removed at various times (0-180 min), mixing by pipetting each time. The timepoints were analyzed by HPLC (method 2) and plotted as fractional conversion versus time. […] Therefore, a second experiment was performed in which the PBS was replaced with 1:1 acetonitrile:water. With this system of 5% DMSO/47.5% acetonitrile/47.5% water, no visible precipitation was produced over the course of the reaction.
The ovarian carcinoma line NCl/ADR-RES (ADR) was grown in high-glucose Dulbecco's Modified Eagle Medium (DMEM) supplemented with 10% fetal bovine serum (FBS), 200 units/mL of penicillin and 200 μg/mL of streptomycin. The breast carcinoma line MDA-MB-231 was cultured in low-glucose DMEM with the same additives. Both lines were maintained in a humidified incubator with 5% CO2/95% air at 37° C. UV irradiations were performed with the apparatus described above.
Growth inhibition experiments were performed by seeding cells into 96-well plates or 24-well plates at densities of 1000-1500 cells per well or 8000 cells per well, respectively, and allowing the cells to adhere overnight. The media was then replaced with a range of aqueous concentrations of the drug in question and allowed to incubate at 37° C. with the cells for a span of time (Inc1) which ranged from 1 min to 48 hours. Irradiation was performed at room temperature with the plate's lid removed and ranged from 1 to 30 min. In some experiments, the drug solution was removed following Inc1 and irradiated in clean media or PBS. Following irradiation, the cells were placed back into the 37° C. incubator for a second period of incubation (Inc2), which varied between 1 min and 24 h, prior to replacement with fresh media. Plates which received no irradiation but identical treatment otherwise were done in parallel. The cells were then grown until the no-drug control wells reached approximately 80% confluence or 5 days, whichever was shorter. […] The cells were fixed with 5% formalin in PBS, stained with crystal violet, washed with tap water, and air-dried. The stain was resolubilized in 50% isopropyl alcohol, 50% H2O containing 2% (w/v) SDS. The staining density was read on a multiwell plate reader at 588-600 nm. Percentage cell density was calculated relative to the irradiated no-drug control wells, plotted as a function of drug concentration, and fit using non-linear least squared analysis with a variable-slope dose response model in GraphPad Prism 5.0 software.
Although the introduction of a long-pass glass filter between the light source and the plate alleviated this effect to a small extent, a maximum irradiation time of 10 min was settled upon. […] Since a media change at that point would remove the cells as well, the re-adherence of the cell population was accomplished by the addition of a large volume (200 μL) of complete media following Inc2, and overnight incubation. Then, a full media change was done to remove the drug. […]

COc1cc(COC(=O)N2COC3C(C)OC(OC4CC(O)(C(=O)CO)Cc5c(O)c6c(c(O)c54)C(=O)c4c(OC)cccc4C6=O)CC32)c([N+](=O)[O-])cc1OC (stereo not shown) [Photodoxazolidine]
body weight change [1]: no significant change
tumor bioluminescence [2]: significant reductions in tumor bioluminescence
fold drop of IC50 on near UV irradiation ([3]; 10 min UV vs alone): more than 30 fold
IC50 ([3]; +UV 10 min, near UV 350 nm): 0.11 µM
times more toxic than doxorubicin alone ([3]; prodrug alone): 2-3 times
IC50 ([3]; prodrug alone, no UV): 3.5 ± 0.8 µM
IC50 ([3]; prodrug alone): ~3.5 µM
